Experimental data taken from publication PMC5473904, “Epigenetic and antitumor effects of platinum(IV)-octanoato conjugates” (Scientific Reports, 2017).

Key:
[1] = system: DNA methylation in HCT-116 cells; test: DNA methylation analysis (Imprint methylated DNA quantification kit); format: cell-based, human; conditions: HCT-116, free OA at sufficiently high (milimolar) concentration
Protocol: Human colon adenocarcinoma cells HCT-116 were chosen as the model cellular system suitable for DNA methylation analysis because: (i) this human colorectal cancer cell line has been used as a prototypic model for analyses of the genetic basis of cancer, and the role of epigenetic changes in tumorigenesis; (ii) they have a propensity to both global DNA hypomethylation and to silence genes through promoter focal hypermethylation, [21]. HCT-116 cells were treated with the compounds at the concentrations indicated in Fig. 4A for 24 or 72 h and DNA was isolated for the complete methylation analysis as described in the experimental section. Decitabine (5-aza-2′-deoxycytidine), a hypomethylating agent which hypomethylates DNA by inhibiting DNMT, was used in these experiments as a […]. The IC50 values found for this agent in HCT-116 cells (the drug-treatment period was 72 h) was (7.5 ± 0.3) µM (Table 1).
Figure 4 Analysis of DNA methylation. (A) DNA was isolated from HCT-116 cells after the exposure to the agents at the concentrations indicated in the graph for 24 or 72 h. The levels of DNA methylation in the control was taken as 100%. The bars represent mean values from three independent experiments each performed in octuplicate. The error bars are the SDs. (B) DNMT activity in colon carcinoma cells HCT-116 treated for 24 h with the compounds tested in the present work. The DNMT activity in the control, untreated cells was taken as 100%. Error bars are the SDs and the stars at the top of bars denote a significant difference from the control with (*p < 0.05; **p < […]), calculated using […] student’s t-test. The bars represent mean values from three independent experiments, each performed in quadruplicate.
Human colon carcinoma cells (HCT-116) were seeded at the density 1.5 × 10^6 cells/dish. […] The DNA content in each sample was determined by UV spectrophotometry. DNA (200 ng) from the samples was loaded to the Imprint methylated DNA quantification kit (Sigma-Aldrich, USA). The level of methylated DNA was proportional to the absorbance measured at 450 nm.

[2] = system: DNMT enzymes in HCT-116 cells; test: DNMT activity in nuclear extracts of treated cells; format: cell-based, human; set-up: unit of the concentration uncertain; conditions: HCT-116, 1 (unit uncertain), 24 h
Protocol: In these experiments, the total activity of DNMT enzymes was determined in nuclear extracts prepared from HCT-116 cells which were treated with the platinum compounds, free OA or decitabine for 24 h (Fig. 4B).
Human colon carcinoma cells (HCT-116) were seeded in 100 mm culture dishes at the density 1.5 × 10^6 cells/dish. Cells were harvested after 24 h of incubation with the compounds tested in the present work (1 µM). Nuclear extracts from the pellets were separated using EpiQuik Nuclear extraction kit I (Epigentek, NY) according to manufacturer’s instructions. Quantification of nuclear proteins was analyzed with the standard Bradford assay. The activity of DNMT enzymes was analyzed using the EpiQuik DNMT activity/inhibition assay Ultra kit (Epigentek, NY), according to the manufacturer´s protocol. Briefly, 10 µg of total nuclear protein was analyzed for its DNMT activity. The reaction time with a universal DNMT substrate stably coated onto microplate wells was 120 min at 37 °C. The final signal at the end of the ELISA reaction was detected at 450 nm (reference 620 nm). DNMT activity was normalized to controls and expressed in the percent or absolute values as OD h^−1 mg^−1, calculated as described in the manufacturer’s manual.

[3] = system: HDAC enzymes in HCT-116 cells; test: HDAC fluorimetric cellular activity assay; format: cell-based, human; conditions: 1 mM (1000-fold higher concentration)
Protocol: These epigenetic processes consist in downregulation of HDACs and yet other biochemical processes triggered by VPA released in cells by the reduction of the Pt(IV) prodrug. Moreover, it has also been shown[15] that non-branched MCFAs may act as HDAC inhibitors. […] HDAC activity was analyzed in HCT-116 cells and confirmed by an independent set of experiments on A2780 cells (data not shown) by using a commercial HDAC fluorimetric cellular activity kit as described in the section Materials and methods.
Figure 3 Activity of HDAC enzymes in HCT-116 cells treated with the compounds tested in the present work; their concentration was 1 µM except the concentration of free OA, which was 1 mM. […] The data represent a mean from three independent experiments, each performed in quadruplicate. The error bars are the SDs.
The activity of HDAC enzymes was analyzed in HCT-116 cells treated with compounds tested in the present work (1 µM). […] The activity of HDAC was analyzed using the HDAC fluorimetric cellular activity assay kit (Enzo Life Sciences; Farmingdale, NY) in the whole cells according to manufacturer’s instructions. […] The plates were scanned on a fluorescence reader Infinite 200 (TECAN) (360 nm excitation, 460 nm emission).

[4] = system: HCT-116 human colorectal carcinoma cells; test: MTT cytotoxicity, 72 h; format: cell-based; conditions: Homo sapiens, HCT-116; MTT, 72 h, octanoic acid
Protocol: (§1) Cytotoxic activity of the compounds tested in the present work was screened on the panel of malignant and nonmalignant cell lines using the colorimetric MTT assay and 72 h of drug incubation period.
(§2) Cell death was evaluated using a system based on the tetrazolium compound MTT [3-(4,5-dimethyl-2-thiazolyl)-2,5-diphenyl-2H-tetrazolium bromide]. The cells were seeded in 96-well tissue culture plates at a density of 10^4 A2780cisR, LNCaP, HSF cells/well, 3 × 10^3 CHO-K1 or 4 × 10^3 MCF7, HCT-116 and MRC5 pd30 cells/well in 100 μL of medium. After overnight incubation (16 h), the cells were treated with the compounds in a final volume of 200 μL/well. After additional 72 h, 10 μL of a freshly diluted MTT solution (2.5 mg mL^−1) was added to each well, and the plate was incubated at 37 °C in a humidified 5% CO2 atmosphere for 4 h. At the end of the incubation period, the medium was removed, and the formazan product was dissolved in 100 μL of DMSO. The cell viability was evaluated by measurement of the absorbance at 570 nm, using an Absorbance Reader SUNRISE TECAN SCHOELLER. IC50 values were calculated from curves constructed by plotting cell survival (%) versus drug concentration (μM). All experiments were made in triplicate. The reading values were converted to the percentage of control (% cell survival). Cytotoxic effects were expressed as IC50.

[5] = system: CHO-K1 Chinese hamster ovary cells; test: MTT cytotoxicity, 72 h; format: cell-based; conditions: Cricetulus griseus, CHO-K1, octanoic acid
Protocol: as §1, §2

[6] = system: MCF-7 human breast cancer cells; test: MTT cytotoxicity, 72 h; format: cell-based; conditions: octanoic acid
Protocol: as §1, §2

[7] = system: MRC-5 (PD30) human fetal lung fibroblasts; test: MTT cytotoxicity, 72 h; format: cell-based; conditions: Homo sapiens, MRC5, octanoic acid
Protocol: as §1, §2

[8] = system: HSF human primary skin fibroblasts; test: MTT cytotoxicity, 72 h; format: cell-based; conditions: Homo sapiens, Skin fibroblast, octanoic acid
Protocol: as §1, §2

[9] = system: LNCaP human prostate adenocarcinoma cells; test: MTT cytotoxicity, 72 h; format: cell-based; conditions: Homo sapiens, LNCaP, octanoic acid
Protocol: as §1, §2

[10] = system: A2780cisR human ovarian carcinoma cells; test: MTT cytotoxicity, 72 h; format: cell-based
Protocol: as §1, §2

[11] = system: A2780 human ovarian carcinoma cells; test: MTT cytotoxicity, 72 h; format: cell-based; conditions: Homo sapiens, A2780; MTT, 72 h, octanoic acid
PNT1a = test: MTT cytotoxicity, 72 h; format: cell-based; conditions: Homo sapiens, PNT1A, octanoic acid

CCCCCCCC(=O)O [OA, octanoic acid, reference compound]
Change of DNA methylation [1]: capable of inducing DNA hypermethylation | Activity of DNMT enzymes [2]: enhanced activity of DNMT enzymes | Efficiency to inhibit HDAC activity [3]: moderate inhibitory effect | IC50 [4]: 3.84 ± 0.39 mM | IC50 [5]: 5.9 ± 0.7 mM | IC50 ([6]; Homo sapiens, MCF7, 72 h): 16 mM | IC50 [6]: 16.2 ± 0.56 mM | IC50 [7]: 7.67 ± 0.61 mM | IC50 [8]: 9.74 ± 0.03 mM | IC50 [9]: 0.71 ± 0.12 mM | IC50 ([10]; Homo sapiens, A2780cisR, MTT, 72 h, octanoic acid): 0.76 ± 0.02 mM | RF, resistance factor ([10]; IC50 (resistant, A2780cisR)/IC50 (sensitive, A2780)): 0.5 | IC50 [11]: 1.46 ± 0.1 mM | IC50 (PNT1a): 2.07 ± 0.03 mM
